{
  "source": "paper PMC13483160",
  "about": "“Reorganization of Innate Immune Cell Lipid Profiles by Bioinspired Meroterpenoids to Limit Inflammation” (Advanced Science, 2026)",
  "biological_target": "T1, 5-lipoxygenase (ALOX5) (Homo sapiens, UniProt P09917)",
  "T1 sequence (P09917 1-674)": "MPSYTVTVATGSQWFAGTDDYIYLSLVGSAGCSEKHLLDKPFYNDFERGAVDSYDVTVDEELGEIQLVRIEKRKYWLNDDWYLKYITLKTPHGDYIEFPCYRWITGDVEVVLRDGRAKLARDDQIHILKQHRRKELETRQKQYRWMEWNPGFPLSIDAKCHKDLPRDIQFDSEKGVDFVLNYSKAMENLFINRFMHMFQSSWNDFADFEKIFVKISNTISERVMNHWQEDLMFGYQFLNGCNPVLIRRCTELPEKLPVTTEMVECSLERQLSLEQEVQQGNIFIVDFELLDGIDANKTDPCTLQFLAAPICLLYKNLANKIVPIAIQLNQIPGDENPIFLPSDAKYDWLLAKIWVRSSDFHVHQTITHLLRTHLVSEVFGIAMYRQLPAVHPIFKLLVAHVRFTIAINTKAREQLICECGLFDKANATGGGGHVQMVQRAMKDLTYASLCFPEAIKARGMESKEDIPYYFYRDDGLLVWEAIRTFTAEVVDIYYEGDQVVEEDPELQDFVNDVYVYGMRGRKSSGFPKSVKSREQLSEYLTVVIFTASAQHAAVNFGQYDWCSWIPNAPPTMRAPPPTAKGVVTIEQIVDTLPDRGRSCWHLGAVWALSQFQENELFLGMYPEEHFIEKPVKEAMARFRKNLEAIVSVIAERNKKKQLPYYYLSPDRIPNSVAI",
  "test": "enzyme kinetics of human recombinant ALOX5 at varying AA ([…])",
  "format": "biochemical",
  "data": [
    {"smiles": "CCCCC/C=C\\C/C=C\\C/C=C\\C/C=C\\CCCC(=O)O", "note": "[AA/20:4, 5Z,8Z,11Z,14Z‐eicosatetraenoic acid]", "values": [
      {"measurement": "enzyme kinetics of human recombinant ALOX5 at varying AA (3-300 μM)", "value": "Lineweaver–Burk plot generated from activity data of human recombinant ALOX5"}
    ]}
  ]
}
